# Laboratory results as given in patent US20260355328A1, “A complex comprising a cargo and a targeting moiety binding intelectin-1” (Stichting Radboud universitair medisch centrum, priority 2022, published 2026).
# What was measured:
# [1] = Biodistribution of Cy5.5-hLF in LPS-induced inflammation mouse model; assay type: in vivo, C57BI/6 mice
# Procedure: At the start, 8- to 10-week-old C57BI/6 mice (Charles River) received an intraperitoneal injection with either 100 μl of 2 mg/kg LPS in 5% glucose solution, or only 5% glucose solution. After 24 hours, mice were injected with 50 μl of 200 μM Cy5.5-labelled peptide. Assuming a blood volume of 1.2 ml this would theoretically result in a concentration of ~8.5 μM in the circulation. After 4 hours, organs were perfused with phosphate buffer, followed by 4% PFA. Organs were removed and peptide distribution was analysed using the In Vivo Imaging System (IVIS; Perkin Elmer). Organs were then fixed by overnight incubation in 4% PFA, followed by overnight incubation in 30% sucrose. Subsequently, organs were frozen for analysis by confocal laser-Scanning microscopy using a TCS SP5 confocal microscope (Leica Microsystems). Glomerular and tubular regions were selected in microscopical pictures from which the mean fluorescence intensity was determined by ImageJ software.
# hGEnC = assay: Uptake in multiple cell lines (Table 2): hGEnC; assay type: cell-based; settings: fluorescein-labeled peptide, confocal microscopy, hGEnC (human)
# EOMA = assay: Uptake in multiple cell lines (Table 2): EOMA; assay type: cell-based; settings: fluorescein-labeled peptide, confocal microscopy, EOMA (mouse)
# HeLa = assay: Uptake in multiple cell lines (Table 2): HeLa; assay type: cell-based; settings: fluorescein-labeled peptide, confocal microscopy, HeLa (human)
# Procedure: (§1) Conditionally immortalized mouse glomerular endothelial cells (mGEnC) were cultured as previously described (Rops et al. Kidney Int. 2004; 66 (6): 2193-201). HeLa cells were employed as a frequently used model cell line and were cultured in DMEM/F12 medium containing 10% fetal calf serum (FCS). For studying uptake, cells were incubated in their respective medium with 10% FCS containing fluorescein-labelled peptides at the indicated concentrations for 20 minutes at 37 °C. In some cases, cells were activated for 16 hours with 10 ng/ml mouse TNFα (Sigma), or co-incubated with Alexa Fluor 633-labeled transferrin (Invitrogen Molecular Probes). Subsequently, cells were washed with PBS and analysed using confocal laser-scanning microscopy on a TCS SP5 confocal microscope (Leica Microsystems), or detached by trypsin/EDTA and analysed on a FACSCalibur Flow cytometer (BD Biosciences) by measuring 20,000 cells.
# (§2) Conditionally immortalized mouse glomerular endothelial cells (mGEnC) were cultured as previously described (Rops et al. Kidney Int. 2004; 66 (6): 2193-201). Cells were incubated in their respective medium with 10% FCS containing fluorescein-labelled peptides at 5 μM for 20 minutes at 37 °C. In some cases, cells were activated for 16 hours with 10 ng/ml mouse TNFα (Sigma), or co-incubated with 100 μg/ml Alexa Fluor 633-labeled transferrin (Invitrogen Molecular Probes). Pre-treatment with ITLN-1 or control siPool siRNA (siTools Biotech) was performed according to the manufacturer's protocol. Subsequently, cells were detached with trypsin/EDTA and analysed by flow cytometry on a FACSCalibur Flow cytometer (BD Biosciences). For immunostaining, cells or 5-μm cryosections of mouse kidney were fixed for 10 minutes with 4% paraformaldehyde, and in the indicated cases permeabilized with 0.3% Triton X-100 in PBS. […] Cells and cryosections were analyzed by confocal laser-Scanning microscopy was performed using a TCS SP5 confocal microscope (Leica Microsystems).
# Podocytes = assay: Uptake in multiple cell lines (Table 2): Podocytes; assay type: cell-based; settings: fluorescein-labeled peptide, confocal microscopy, Podocytes (mouse)
# Procedure: as §1, §2
# mGEnC [2] = assay: Intracellular localization / co-localization with transferrin in mGEnC (confocal microscopy); assay type: cell-based, mouse; settings: FIG. 2C
# Procedure: as §1
# Conditionally immortalized mouse glomerular endothelial cells (mGEnC) were cultured as previously described (Rops et al. Kidney Int. 2004; 66 (6): 2193-201). […] Subsequently, cells were detached with trypsin/EDTA and analysed by flow cytometry on a FACSCalibur Flow cytometer (BD Biosciences). […] Cells and cryosections were analyzed by confocal laser-Scanning microscopy was performed using a TCS SP5 confocal microscope (Leica Microsystems).
# [3] = system: heparan sulphate proteoglycans (HSPGs); settings: HeLa cells, literature; cited from earlier work
# ITLN-1 [4] = target: T1, ITLN-1 (Mus musculus, UniProt O88310); assay: Uptake by mGEnC after downregulation of ITLN-1 with siRNA; assay type: cell-based; settings: peptides at 5 μM, FIG. 2E
# T1 construct: ITLN-1 siRNA versus control siRNA
# T1 sequence (O88310 19-298): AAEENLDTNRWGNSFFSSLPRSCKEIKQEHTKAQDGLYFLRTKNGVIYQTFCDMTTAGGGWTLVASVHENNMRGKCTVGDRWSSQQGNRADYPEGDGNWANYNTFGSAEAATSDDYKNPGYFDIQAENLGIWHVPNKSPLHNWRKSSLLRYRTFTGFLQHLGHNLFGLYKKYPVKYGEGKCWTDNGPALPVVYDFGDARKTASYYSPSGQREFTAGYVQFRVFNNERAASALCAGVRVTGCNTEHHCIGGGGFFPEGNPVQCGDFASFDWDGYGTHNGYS
# Procedure: (§3) Conditionally immortalized mouse glomerular endothelial cells (mGEnC) were cultured as previously described (Rops et al. Kidney Int. 2004; 66 (6): 2193-201). Cells were incubated in their respective medium with 10% FCS containing fluorescein-labelled peptides at 5 μM for 20 minutes at 37 °C. In some cases, cells were activated for 16 hours with 10 ng/ml mouse TNFα (Sigma), or co-incubated with 100 μg/ml Alexa Fluor 633-labeled transferrin (Invitrogen Molecular Probes). Pre-treatment with ITLN-1 or control siPool siRNA (siTools Biotech) was performed according to the manufacturer's protocol. Subsequently, cells were detached with trypsin/EDTA and analysed by flow cytometry on a FACSCalibur Flow cytometer (BD Biosciences). For immunostaining, cells or 5-μm cryosections of mouse kidney were fixed for 10 minutes with 4% paraformaldehyde, and in the indicated cases permeabilized with 0.3% Triton X-100 in PBS. Subsequently, cells and cryosections were stained for 1 hour with anti-intelectin-1 (R&D Systems) or anti-LRP-1 (Abcam) antibodies, and after washing incubated for 1 hour with the appropriate Alexa Fluor-labelled secondary antibody (Invitrogen Molecular Probes). Cells and cryosections were analyzed by confocal laser-Scanning microscopy was performed using a TCS SP5 confocal microscope (Leica Microsystems).
# [5] = Biodistribution of 111In-DOTA-labelled hLF after intravenous injection in healthy mice; assay type: in vivo, C57BI/6 mice; settings: i.v.
# Procedure: Female and male 10-12-weeks-old C57BI/6 mice (Charles River) were injected via the tail vein with 50 μl of 200 μM 111 In-DOTA-labelled hLF peptide. Assuming a blood volume of 1.2 ml this would theoretically result in a concentration of ~8.5 μM in the circulation. Urine, blood and organs were collected 4 hours after injection, and radioactivity was measured in a gamma-counter. The percentage injected dose per gram of tissue (% ID/gram) was calculated for each tissue along with % of the absorbed dose.
# [6] = Proteolytic breakdown and serum protein binding of the peptides; assay type: in vitro ADME
# mGEnC treated with TNFα = assay: Uptake by mGEnC after activation with TNFα; assay type: cell-based; settings: 10 ng/ml mouse TNFα 16 hours
# Procedure: as §1, §3
# mGEnC [7] = assay: Uptake in multiple cell lines (Table 2): mGEnC; assay type: cell-based; settings: fluorescein-labeled peptide, confocal microscopy, mGEnC (mouse)
# Procedure: as §1, §2
# HeLa cells = assay: Uptake of fluorescein-labelled peptides by HeLa cells (flow cytometry); assay type: cell-based, human; settings: FIG. 1B
# Procedure: as §1
# [8] = system: heparan sulphate on mGEnC; assay: Peptide uptake by mGEnC after removal of heparan sulphate (heparinases); assay type: cell-based, mouse; settings: 5 μM, FIG. 1D
# Procedure: (D) Digestion of heparan sulphate from the cell surface has a limited effect on the uptake of lactoferrin-derived peptides (5 μM). Percentage of uptake for heparan sulphate-cleaved compared to undigested cells is shown.
# as §1
# In order to further substantiate that uptake of hLF occurred by a mechanism different of the one typically observed for CPPs, we addressed the role of heparan sulphate proteoglycans (HSPGs).
# [9] = system: mouse glomerular endothelial cells (mGEnC); assay: Uptake of fluorescein-labelled peptides by mGEnC (flow cytometry); assay type: cell-based; settings: different concentrations, 20 minutes at 37 °C, FIG. 1A
# Procedure: as §1
# HUVEC = assay: Uptake in multiple cell lines (Table 2): HUVEC; assay type: cell-based; settings: fluorescein-labeled peptide, confocal microscopy, HUVEC (human)
# ITLN-1 [10] = target: T1, ITLN-1; assay: ITLN-1 protein expression in mGEnC; assay type: cell-based; settings: 10 ng/ml TNFα, FIG. 2B
# Procedure: as §3
# [11] = Biodistribution of full-length lactoferrin, lactoferricin and hLF-6 in LPS-challenged mice (IVIS); assay type: in vivo; settings: fluorescent label, i.v., 2 h
# Procedure: Lactoferrin and lactoferricin are cloned in an expression plasmid containing the C-terminal Sortase-sequence protein-LPETG-HHHHHH. LPETGHHHHHH is SEQ ID NO: 98. Next, the protein is expressed overnight in E. coli and purified from sonicated bacterial cell lysates by Ni-NTA beads using 400 mM imidazole to elute the proteins. After overnight dialysis, full-length lactoferrin and hLF-6 are labelled by means of a Sortase exchange reaction on the C-terminus with a fluorescent dye (Alexa647 or Cy5.5) for 2 h at 4 °C using a fluorescently labelled donor peptide (formula:biotin-GSSG-LPETG-label or biotin-GSSG-LPETG-PEG40k-label) as substrate GSSGLPETG is SEQ ID NO: 99. Excess donor peptide is removed by means of streptavidin binding of the biotin tag on the N-terminus of the donor peptide. Next, the purified labelled protein/peptide is injected into LPS-challenged mice via intravenous injection in the tail vein. Mice are sacrificed after 2 h, and organs harvested for imaging by IVIS. Biodistribution is quantified for each organ, and relative distribution is shown.
# [12] = system: proteoglycans on endothelial and epithelial cells; settings: literature; cited from earlier work
substance,measurement,setting,value
"KCFQWQRNMRKVRGPPVSCIKR [hLF, lactoferrin-derived 22-amino acid peptide]","signal in spleen, heart, eyes, brain and lymph nodes","[1]; IVIS, LPS-treated and non-treated mice",virtually undetectable
same,tubular uptake of non-conjugated / free peptide,[1]; i.v. injection in mice,tubular uptake
same,Uptake (Table 2),hGEnC,High
same,Uptake (Table 2),EOMA,High
same,Uptake (Table 2),HeLa,High
same,Uptake (Table 2),Podocytes,High
same,co-localization with fluorescently-labelled transferrin,mGEnC [2],co-localized completely
same,dependence of uptake on HSPG,[3],depends on the presence of HSPG
same,uptake after ITLN-1 siRNA compared to control siRNA,ITLN-1 [4],reduced uptake
same,biodistribution (main organ),"[5]; 111In-DOTA-labelled, 4 hours, FIG. 3A",predominantly located in the kidney
same,concentration in the blood after 4 hours,[5],< 1%
same,absorbed dose in kidney and liver combined of total dose in all the organs,[5]; 4 hours,more than 90%
same,"distribution to other organs including intestines, skin and heart, fold lower",[5]; 4 hours,more than 20 fold
same,"distribution to the liver, fold lower than kidney",[5]; 4 hours,approximately 2 fold
same,"kidney targeting, female versus male mice",[5]; 4 hours,No significant differences
same,"peptide concentration in spleen and lungs, fold lower than kidney",[5]; 4 hours,5-10 fold
same,binding to serum proteins as reason for preferential uptake by mGEnC,[6],"not due to a difference in proteolytic breakdown of the peptides before uptake, or a difference in the binding to serum proteins"
same,proteolytic breakdown as reason for preferential uptake by mGEnC,[6]; before uptake,not due to a difference in proteolytic breakdown
same,effect of TNFα treatment on uptake,mGEnC treated with TNFα,increased uptake
same,increase of uptake after TNFα treatment,"mGEnC treated with TNFα; 5 μM, FIG. 1E",50-100%
same,Uptake (Table 2),mGEnC [7],High
same,uptake in HeLa cells,HeLa cells,show uptake
same,decrease in uptake after removal of heparan sulphate,[8],~ 20%
same,uptake in mGEnC,[9],much more efficient dose-dependent uptake
same,Uptake (Table 2),HUVEC,High
TNFα,ITLN-1 expression after activation,ITLN-1 [10],augmented ITLN-1 expression
lactoferricin,bio-distribution,[11],"accumulation predominantly in liver and spleen and less in kidney, brain and intestine"
same,binding to proteoglycans,[12],bind to proteoglycans on endothelial and epithelial cells
